# From PubChem BioAssay AID1645864 (Buhrlage Lab, Dana-Farber Cancer Institute and Novartis …, 2021)
# Activity calls are given as the source filed them.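 How the source made its calls: active means maximal inhibition of USP17 at or above 30% in the confirmation dose-response, a value not among the printed readouts; inactive means the rest.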
# Target: Ubiquitin carboxyl-terminal hydrolase 17-like protein 5 (Homo sapiens) (UniProt A8MUK1)
# Test: ubiquitin-specific protease 17 DUB inhibitors, concentration-effect assay, cell-free, verification of initial screening actives (AID 1645864)
# Details: purified USP17, ubiquitin-rhodamine cleavage fluorescence, 3 h
# Chain of Ubiquitin carboxyl-terminal hydrolase 17-like protein 5 (Homo sapiens) (A8MUK1 whole entry, looked up): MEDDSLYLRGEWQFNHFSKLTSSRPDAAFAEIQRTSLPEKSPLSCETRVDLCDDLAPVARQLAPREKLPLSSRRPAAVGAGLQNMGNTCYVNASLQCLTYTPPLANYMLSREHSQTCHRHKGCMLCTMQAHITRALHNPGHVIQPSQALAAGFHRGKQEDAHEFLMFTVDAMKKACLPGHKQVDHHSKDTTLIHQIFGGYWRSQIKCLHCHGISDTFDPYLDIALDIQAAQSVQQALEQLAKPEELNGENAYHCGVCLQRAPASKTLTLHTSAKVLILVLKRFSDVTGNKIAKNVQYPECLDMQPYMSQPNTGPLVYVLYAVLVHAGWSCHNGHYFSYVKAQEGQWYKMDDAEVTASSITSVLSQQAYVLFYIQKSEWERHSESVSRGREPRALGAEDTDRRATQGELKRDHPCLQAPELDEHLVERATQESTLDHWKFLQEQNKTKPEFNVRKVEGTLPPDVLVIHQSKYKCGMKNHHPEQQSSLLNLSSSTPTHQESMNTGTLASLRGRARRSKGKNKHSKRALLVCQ
row,SMILES,IC50
1,O=C(Cn1c(=O)nc(-c2ccccc2)c2ccccc21)NCc1ccc2c(c1)OCO2,27.8 µM
2,Cc1cc(C)nc(-n2nc(C)c3c2NC(=O)CSC3c2ccccc2F)n1 (stereo not given),43 µM
3,COc1ccc(C(=O)Nc2n[nH]c(C)c2-c2cccc(C)c2)c(OC)c1,2.74 µM
4,O=C(Nc1ccccc1)c1cn2c3c(cccc3c1=O)CC2,26.9 µM
5,Cc1cccc(C(=O)OCC(=O)Nc2ccc3[nH]c(=O)[nH]c3c2)c1C,4.32 µM
6,O=C1CN(C(=O)COC(=O)CCCN2C(=O)c3cccc4cccc(c34)C2=O)c2ccccc2N1,49.3 µM
7,COc1ccc(-n2ccn3c(CCC(=O)NCc4ccc(F)cc4)nnc3c2=O)cc1,33 µM
8,CCc1ccc2[nH]c3c(c(=O)c2c1)CN(CC(=O)NCc1ccc2c(c1)OCO2)CC3,28.1 µM
9,Cc1ccc2c(c1)[C@]1(C(=O)N2)[C@@H]2C(=O)N(c3cccc(C(F)(F)F)c3)C(=O)[C@@H]2C2CCCN21 (stereo not given in full),> 50 µM (inactive)
10,O=C(Nc1ccccc1Br)c1ccn(COc2ccccc2F)n1,16.5 µM
11,COC(=O)C1C(c2ccc(Cl)cc2Cl)C2(C(=O)c3ccccc3C2=O)C2C=Cc3ccccc3N12 (stereo not given),> 50 µM (inactive)
12,Cc1ccc(NC(=O)c2ccc(Nc3nnc(C)c4ccccc34)cc2)cc1,38.1 µM
13,O=C1c2c(O)c(Cl)cc3c2[C@@]2(Oc4cc(Cl)c(O)c5c4[C@]3(O2)[C@@H]2O[C@@H]2C5=O)[C@@H]2O[C@H]12,0.411 µM
14,Cc1cc(=O)n2c3c(c4c(cc13)c(CO)cc(=O)n4C)OC2,9.79 µM
15,CCCc1nc2sc3c(NCCCN4CCOCC4)ncnc3c2c2c1CCC2,> 50 µM (inactive)
16,CCOC(=O)c1ccc(S(=O)(=O)N2CCC(C(=O)OC(C)C(=O)Nc3cccc([N+](=O)[O-])c3)CC2)cc1 (stereo not given),7.35 µM
17,COc1ccc(-c2nnc(SCc3ccccc3C#N)o2)c(OC)c1,> 50 µM (inactive)
18,Cc1ccccc1Cc1nc(-c2ccc(=O)[nH]c2)no1,> 50 µM (inactive)
19,O=C(Nc1cccc(-c2noc(C3CCC3)n2)c1)C1CC(=O)N(c2ccccc2)C1 (stereo not given),14.1 µM
20,CCOC(=O)c1cccc(NC(=O)Nc2cccn3nc(C)nc23)c1,> 50 µM (inactive)
21,CC1CCCN(S(=O)(=O)c2cc3cc(F)ccc3oc2=O)C1 (stereo not given),31.1 µM
22,CC(=O)c1cccc(NC(=O)c2ccc3[nH]c4c(c3c2)CC(C)CC4)c1 (stereo not given),> 50 µM (inactive)
23,Cc1ccc2nc(NC(=O)C3CCCN3S(=O)(=O)c3ccc4c(c3)OCCO4)sc2c1 (stereo not given),> 50 µM (inactive)
24,COc1ccc(C2CC(=O)Nc3n[nH]c(-c4ccccc4)c32)cc1OC (stereo not given),29.7 µM
25,CCCCNc1nc2c(-c3ccccc3)nnn2c2ccccc12,3.08 µM

row,SMILES,IC50
1,COc1ccccc1CC(=O)Nc1nc2ccccc2[nH]1,33.3 µM
2,CCCCCCCc1cc(O)cc(OC(=O)c2c(CCCCCCC)cc(O)cc2O[C@H]2O[C@H](C(O)CO)[C@@H](O)[C@@H]2O)c1 (stereo not given in full),34.1 µM
3,CC(=O)N1CCc2cc(S(=O)(=O)NCCC(=O)Nc3cccc(C)c3C)ccc21,23.7 µM
4,Cc1ccccc1NC(=O)c1nc(-c2cn(Cc3ccc(F)cc3)nn2)no1,8.42 µM
5,Cc1cc(/C=C2/C(=N)N3C(c4ccccc4)=CSC3=NC2=O)c(C)n1-c1ccc(F)cc1,> 50 µM (inactive)
6,Cc1ccccc1OCCSc1nc2ccccc2n1CC(=O)NC1CC1,22.8 µM
7,CSc1nccc(-c2ccc(F)cc2)c1C#N,20.7 µM
8,CCCc1cc(=O)oc2cc(OCC(=O)NCc3ccc(OC)cc3)ccc12,9.4 µM
9,CSc1cccc(NC(=O)COc2cccc3ccccc23)c1,2.04 µM
10,CC1=C[C@@H](C)CC[C@H]2O[C@@H](C3=C(O)C(=O)C(C)=C4O[C@](O)(C=C43)[C@@H](C)C[C@H](C)C1)[C@H](C)[C@@H](O)[C@H]2C,16.1 µM
11,Nc1c(C(=O)NCCc2ccccc2)nnn1-c1ccc(F)cc1,40.2 µM
12,CCN(CC)c1nc(F)c2c(c1F)S(=O)(=O)CCN2Cc1ccccc1,> 50 µM (inactive)
13,Cc1ccc(CNC(=O)c2cccc(N3C(=O)N4CCc5c([nH]c6ccccc56)[C@@]4(C)C3=O)c2)cc1,23.1 µM
14,O=C(CSc1cn(Cc2ccccc2)c2ccccc12)Nc1ccc2c(c1)OCCO2,> 50 µM (inactive)
15,NS(=O)(=O)c1cccc(NS(=O)(=O)c2ccc(/C=C/C(=O)OCC(=O)c3ccc(Br)cc3)cc2)c1,> 50 µM (inactive)
16,O=c1ccc(-c2noc(-c3ccc4cc[nH]c4c3)n2)c[nH]1,> 50 µM (inactive)
17,O=C(Cn1ccc2ccc(N3CCOCC3)nc21)NCc1ccccc1F,> 50 µM (inactive)
18,Cc1c(C(=O)Nc2cccc(C(F)(F)F)c2)cnn1-c1ccccn1,34.4 µM
19,CC(=O)c1sc(NC(=O)/C=C/c2ccccc2)nc1-c1ccccc1,13.7 µM
20,Cc1c2c(nc3ccccc13)-c1ccccc1CC2,> 50 µM (inactive)
21,O=c1ccc(-c2noc(Cc3c(F)cccc3Cl)n2)c[nH]1,> 50 µM (inactive)
22,O=C(COC(=O)c1cc2c(s1)CCC2)c1ccc2[nH]c(=O)[nH]c2c1,15.7 µM
23,O=S(c1ccc2ccccc2c1)c1cnns1 (stereo not given),> 50 µM (inactive)
24,COc1ccc(NC(=O)c2ccccc2OCC(=O)Nc2ccccc2C(F)(F)F)c(C)c1,26.9 µM
25,COc1cccc(-n2c(=O)[nH]c3c(C(N)=O)nc(-c4ccc(OCc5ccccc5)cc4)nc32)c1,> 50 µM (inactive)

row,SMILES,IC50
1,COC(=O)COc1ccc(/C=N/NC(=O)c2ccc(CN3CCc4ccccc4C3)cc2)cc1,14.5 µM
2,CC(C)N1CC2CN(C(=O)c3ccccc3)CCN2Cc2ccccc21 (stereo not given),> 50 µM (inactive)
3,Cc1noc(C)c1COc1cccc(C(=O)Nc2cc(Cl)ccc2-n2cncn2)c1,> 50 µM (inactive)
4,O=C(Nc1ccc2c(c1)OCCO2)c1ccc(N2CCCCC2)nn1,> 50 µM (inactive)
5,COc1ccc2nc(Nc3ncc4c(n3)CCCC4=O)nc(C)c2c1,> 5 µM (inactive)
6,CC1CCN(C(=O)c2cn(-c3cc(N4CCC(C)CC4)ncn3)cn2)CC1,> 50 µM (inactive)
7,CCOc1ccc(NS(=O)(=O)c2ccc(NC(=O)Nc3ccccc3)cc2)cc1,17.9 µM
8,CCC(=O)Nc1cccnc1-c1ccc(C(=O)Nc2cccc(OC)c2)cc1,> 50 µM (inactive)
9,CC(=O)Nc1ccc(-n2cnc(C(=O)NCc3ccc(C)cc3)c2)nc1,27.1 µM
10,CC(C)c1ccc(/C=C/C(=O)N2CCc3ccccc3C2)cc1,21.1 µM
11,COc1ccc(C2SCC(=O)Nc3c2c(=O)[nH]n3C2CCCCC2)cc1 (stereo not given),28.7 µM
12,O=C(Nc1ccccc1)c1cn(-c2cc(N3CCCC3)ncn2)cn1,> 50 µM (inactive)
13,COc1ccc(-c2cc(C(=O)N3CCN(c4ccc([N+](=O)[O-])cc4)CC3)[nH]n2)cc1,> 50 µM (inactive)
14,N#Cc1ccc(-c2ccc(OCC(=O)Nc3ccc4c(c3)OCO4)cc2)cc1,2.48 µM
15,O=C(c1ccc(Cl)cc1)c1c[nH]cc1-c1c(F)cccc1Cl,36.3 µM
16,Cc1nc(-c2cccc(NC(=O)C3CCN(c4ccccc4)C3=O)c2)no1 (stereo not given),37.2 µM
17,Cc1cccc(COc2ccc(C3SCC(=O)Nc4n[nH]c(C)c43)cc2)c1 (stereo not given),20.6 µM
18,Cc1cc(C)n2nc(CNc3cccc(Cl)c3)nc2n1,> 50 µM (inactive)
19,CCCc1nc2c(sc3nc4c(cc32)COC(C)(C)C4)c(=O)n1CC(=O)Nc1ccccc1C,32.2 µM
20,Cc1nc(-c2ccc(NC(=O)N3CCN(c4ccccn4)CC3)cc2)no1,> 50 µM (inactive)
21,CCN(C(=O)c1cc2c(s1)-c1ccccc1OC2)c1ccccc1F,> 50 µM (inactive)
22,O=c1c(S(=O)(=O)c2cc(F)cc(F)c2)c[nH]c2cc(Cl)ccc12,23.8 µM
23,CN1C(=O)[C@]23CC4=CC=C[C@H](O)[C@H]4N2C(=O)[C@@]1(CO)SS3,> 50 µM (inactive)
24,COc1cc(C(=O)NC(Cc2ccccc2)c2nc3ccccc3[nH]2)cc(OC)c1OC (stereo not given),2.62 µM
25,CCn1c(=O)c2ccccc2n(Cc2nc(-c3ccccc3OC)no2)c1=O,> 50 µM (inactive)

row,SMILES,IC50
1,O=C(Cc1ccc(Cl)c(Cl)c1)OCC(=O)c1c[nH]c2ccccc12,> 50 µM (inactive)
2,Cc1ccc(-c2c(C(=O)Nc3ccc(S(N)(=O)=O)cc3)oc(=O)c3ccccc23)cc1,31.9 µM
3,Cc1ccc(-n2cc(C(=O)NCc3cccnc3)nn2)cc1C,22.3 µM
4,CCC1=C(c2ccc(C)cc2)S(=O)(=O)NC1=NCC(=O)NC(C)c1ccccc1 (stereo not given),25.2 µM
5,N#Cc1ccccc1Cn1c(=O)n(CCCCC(=O)NCc2ccco2)c(=O)c2ccccc21,46.3 µM
6,COc1ccc(/C=C\c2nccc3c2[nH]c2ccccc23)cc1,> 50 µM (inactive)
7,CN(C)c1ccc(/C=N/NC(=O)c2ccc(Cl)cc2)cc1,6.27 µM
8,COc1cccc(CCNC(=O)CCn2c(=O)c(C)nc3cc(C)c(C)cc32)c1,> 50 µM (inactive)
9,COc1ccc(-n2ccc(=O)c(-c3nc(-c4ccccc4F)no3)n2)cc1OC,> 50 µM (inactive)
10,O=c1[nH]c2ccc(S(=O)(=O)Nc3ccc(O)c4ccccc34)cc2[nH]1,4.09 µM
11,Cc1ccc(Cc2nc(-c3ccc(=O)[nH]c3)no2)cc1,> 50 µM (inactive)
12,Cc1ccccc1Cn1ccc2ccn(Cc3cccnc3)c2c1=O,> 50 µM (inactive)
13,COc1ccc(C(C)NC(=O)c2cnc(-c3ccccc3)nc2-c2ccncc2)cc1 (stereo not given),> 50 µM (inactive)
14,O=C1C=CC(O)C2C1CC13SSC4(CC5C(=O)C=CC(O)C5N4C1=O)C(=O)N23 (stereo not given),> 50 µM (inactive)
15,COC(=O)CC1CC23OC2(C(=O)c2c(O)cccc2C3=O)C(C)O1 (stereo not given),0.161 µM
16,CCOc1ccccc1NC(=O)Cn1ccn2nc(-c3ccc(OC)cc3)cc2c1=O,6.49 µM
17,Cc1cc(C(=O)N2CCOC3(CC=CCN(CCc4ccccc4)C3=O)C2)n2nccc2n1 (stereo not given),> 50 µM (inactive)
18,O=C(Cc1ccccc1F)Nc1nc(-c2ccco2)c(-c2ccco2)s1,> 50 µM (inactive)
19,N#C/C(=C/c1sc(N2CCOCC2)nc1-c1ccccc1)c1ccccn1,> 50 µM (inactive)
20,CN1C(=O)COc2cc(-c3noc(C(=O)NC4CCCCCC4)n3)ccc21,39.3 µM
21,O=C1CC(O)C(O)c2cccc(O)c21 (stereo not given),9.86 µM
22,O=C(Cn1cnc(-c2noc(-c3ccncc3)n2)c1)N1CCN(c2ccccc2F)CC1,> 50 µM (inactive)
23,O=C(COc1ccc(Cl)cc1)Nc1noc(-c2ccccc2)n1,22.6 µM
24,COCC(C)Nc1ncc(-c2cnccn2)c(-c2ccc(C)s2)n1 (stereo not given),> 50 µM (inactive)
25,Nc1ncnc(SCc2ccc(Cl)cc2)n1,27.1 µM
